Patent US7141661B2, “Non-steroidal anti-inflammatory drug activated gene with anti-tumorigenic properties” (The United States of America as represented by the …, priority 2000, dated 2006)

What was measured:
Type in all cases: cell-based, human
HCT-116 cells [1] = experiment: Apoptosis by FACS in HCT-116 cells stably transfected with vector, sense or antisense NAG-1; details: 100 μM, 48 hr
Source text: (§1) HCT-116 cells were stably transfected with an expression vector containing the full-length NAG-1 coding region in the sense and antisense orientations. The sense cells expressed NAG-1 protein at a level that was 2.0–2.5 fold greater than the vector transfected cells, while the anti-sense cells expressed slightly lower NAG-1 levels compared to vector transfected cells. […] The full-length NAG-1 (sense strand and antisense strand) was cloned into the pCDNA3.1 expression vector and transfected into HCT-116 cells. Each cell was grown under G418 (500 μg/ml) for 2 weeks and treated with either vehicle or INDO (100 μM). After growing for 48 hr, the media was harvested, concentrated, and subjected to Western analysis. Thirty μg of total protein was loaded in each lane, and the arrow indicates the NAG-1 protein band.
Despite repeated attempts, construction of NAG-1 highly expressing cells which may be linked to high rates of apoptosis were not generated (data not shown). […] This could be due to effects on cell proliferation and/or an increase in cell death. […] The stably transfected cells were then incubated with 100 μM indomethacin for 48 hr and the percentage of cells in apoptosis determined by FACS analysis as described in Example 1. The data shown in FIG. 6 represent mean±S.D. Indomethacin enhanced the percentage of apoptotic cells by approximately 2 fold in the vector-HCT-116 and sense cells.

HCT-116 cells [2] = experiment: Apoptosis and cell cycle by PI staining / FACS in HCT-116 cells
Protocol: To determine whether NAG-1 gene expression is associated with NSAID-induced apoptosis or altered cell cycle kinetics, flow cytometric analysis of the distribution of cells at various stages of the cell cycle was performed. Apoptosis and cell cycle kinetics of INDO-treated HCT-116 cells were measured at different time points. HCT-116 cells were treated with INDO, stained with PI, and analyzed by flow cytometry. Seven thousand five hundred cells were examined by flow cytometry by gating on an area versus width dot plot to exclude cell debris and cell aggregates. Apoptosis is represented by the fold increase in sub-G1 population over 0 hr treatment.
The DNA content for NSAIDs, PPARγ ligand, and vehicle treated HCT-116 cells was determined by FACS. Cells were plated at a density of 4×10^5 cells/well in 2 ml of medium in 6 well plates, incubated for 16 h, and then treated with NSAIDs or TGZ in the presence of serum. After treatment, the cells were harvested, washed with PBS, fixed by the slow addition of cold 70% ethanol to a total of 1 ml, and stored overnight at 4° C. The fixed cells were pelleted, washed once with PBS, and stained in 1 ml of 20 μg/ml of propidium iodide (PI), 1 mg/ml RNase in PBS for 20 min. Seven thousand five hundred cells were examined by flow cytometry using Becton Dickinson FACSort equipped with CellQuest software, by gating on an area versus width dot plot to exclude cell debris and cell aggregates. Each cell cycle distribution was analyzed by the McCycle program using one cell cycle parameter. Apoptosis was measured based on the level of sub-diploid DNA contained in cells following treatment with NSAIDs or TGZ using CellQuest software.
Northern analysis was performed using NAG-1 and β-actin as probes. The data represent relative expression of NAG-1 mRNA over the control (1.0). Each NSAID was tested at 3 different concentrations and maximally effective concentration used for apoptosis determination. Apoptosis ratio by PI staining was measured by FACS. […] The data represent relative apoptosis ratio over vehicle treatment by PI staining methods. TACS™ Annexin V-FITC kit was also used to confirm apoptosis.

NAG-1 = experiment: Western analysis of NAG-1 in stably transfected HCT-116 cells; details: antisense HCT-116 cells, 100 μM, 48 hr
Source text: as §1

Which results are given for `COc1ccc2c(c1)c(CC(=O)O)c(C)n2C(=O)c1ccc(Cl)cc1` [Indomethacin]?
Stimulation of apoptosis (HCT-116 cells [1]; antisense HCT-116 cells): did not stimulate apoptosis; Enhancement of percentage of apoptotic cells (HCT-116 cells [1]; sense NAG-1 HCT-116 cells): approximately 2 fold; Enhancement of percentage of apoptotic cells (HCT-116 cells [1]; vector-HCT-116 cells): approximately 2 fold; Increase in apoptosis (sub-G1 population over 0 hr) (HCT-116 cells [2]; HCT-116, 36 hr exposure): ~3 fold; Apoptosis (PI Staining), relative apoptosis ratio over vehicle (HCT-116 cells [2]; HCT-116, 48 hr in presence of serum, maximally effective concentration, FACS): 2.9 ± 0.121; Increase in apoptosis (sub-G1 population over 0 hr) (HCT-116 cells [2]; HCT-116, 60 hr exposure): 4.5 fold; Earliest time at which apoptosis was observed (HCT-116 cells [2]; HCT-116, presence of serum, TGZ 5 μM): 36 h; Time point at which G1 arrest was seen (HCT-116 cells [2]; HCT-116, TGZ 5 μM): 12 h; Expression of NAG-1 (NAG-1): did not stimulate apoptosis or increase the expression of NAG-1
